From PubChem BioAssay (NCI)
“And” between values parts separate entries of the source, which are not always exact repeats. Equal entries are not always repeated.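 Each compound was tested at five concentrations against cells in 96-well plates for 48 hours. The concentration for 50% growth inhibition is given as GI50. TGI denotes the concentration required for complete inhibition of growth.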

Tests used:
Assay in all cases: NCI anticancer screen, dose series, 48 h
SN12C renal = tested on: SN12C renal
PC-3 prostate = tested on: PC-3 prostate
SF-295 CNS = tested on: SF-295 CNS
KM12 colon = tested on: KM12 colon
UO-31 renal = tested on: UO-31 renal
ACHN renal = tested on: ACHN renal
CAKI-1 renal = tested on: CAKI-1 renal
MDA-MB-435 = tested on: MDA-MB-435
NCI-H522 lung = tested on: NCI-H522 lung
MCF7 breast = tested on: MCF7 breast

SMILES | GI50 (SN12C renal) [µM] | TGI (SN12C renal) | GI50 (PC-3 prostate) [µM] | TGI (PC-3 prostate) [µM] | GI50 (SF-295 CNS) [µM] | TGI (SF-295 CNS) | GI50 (KM12 colon) [µM] | TGI (KM12 colon) | GI50 (UO-31 renal) [nM] | TGI (UO-31 renal) | GI50 (ACHN renal) [µM] | TGI (ACHN renal) | GI50 (CAKI-1 renal) [µM] | TGI (CAKI-1 renal) | GI50 (MDA-MB-435) [µM] | GI50 (NCI-H522 lung) [µM] | TGI (NCI-H522 lung) | GI50 (MCF7 breast) [µM] | TGI (MCF7 breast) [µM] | TGI (MDA-MB-435) [µM]
COc1ccc(C(=O)c2cc(OC)c(OC)c(OC)c2)cc1OC(=O)CCl | 0.0472 | > 100 µM | < 0.0192 | > 100 | 0.0456 | > 100 µM | < 0.0143 | > 100 µM | 373 | > 100 µM | < 0.0267 | 98.7 µM | 0.151 | > 100 µM | < 0.01 | 0.0196 | > 100 µM | 0.0249 | > 100 | –
COc1ccc(-c2c[nH]c(C(=O)O)c2-c2cc(OC)c(OC)c(OC)c2)cc1 | 7.94 | > 100 µM | 4.46 | > 100 | 4.19 | > 100 µM | 4.59 | > 100 µM | 5020 | > 100 µM | 9.74 | > 100 µM | 3.66 | > 100 µM | 1.6 | 2.75 | > 100 µM | 3.89 | > 100 | 4.19
CN(O)c1nc(N(C)O)nc(N2CCOCC2)n1 | 7.48 | > 100 µM | 7.82 | > 100 | 2.57 | > 100 µM | 15.5 | > 100 µM | 2410 | > 100 µM | 1.1 | > 100 µM | 1.08 | > 100 µM | 6.6 | 4.03 | > 100 µM | 3.95 | > 100 | > 100
CC(C)(C)c1ccc(Oc2nccc(-c3c(-c4ccc(F)cc4)ncn3C3CCNCC3)n2)cc1 | 3.65 | 7.06 µM | 2.88 | 6.19 | 4.65 | 8.68 µM | 3.95 | 7.61 µM | 2610 | 6.61 µM | 3.49 | 6.78 µM | 3.96 | 7.64 µM | 3.53 | 4.69 | 8.58 µM | 3.86 | 7.77 | 7.04
Fc1ccc2c(c1)C1=NN(c3ccccc3)C(F)C1CO2 (stereo unspecified) | 6.93 | 14.7 µM | 11.1 | > 50 | 6.45 | 17.1 µM | 16.1 | 45.6 µM | 13300 | > 50 µM | 8.94 | 22.7 µM | 6.41 | 20.2 µM | 6.7 | > 50 | > 50 µM | 9.41 | > 50 | 15.9
CC(C)[C@H](N)C(=O)N1CCC[C@H]1B(O)O | > 100 | > 100 µM | > 100 | > 100 | > 100 | > 100 µM | > 100 | > 100 µM | > 100000 | > 100 µM | > 100 | > 100 µM | > 100 | > 100 µM | > 100 | > 100 | > 100 µM | > 100 | > 100 | > 100
Cc1cc(O)c(C(C)C)cc1S(=O)(=O)O (tested in a mixture with another compound) | 0.448 | – | 0.318 | 9.01 | 0.281 | – | 0.381 | – | 382 | – | 1.04 | > 100 µM and 10.9 µM | 0.435 | 10.8 µM | 0.171 | 0.238 | – | 0.325 | 1.57 | 0.464
COc1cc(C[C@H]2c3cc(OC)c(OC)cc3CCN2C)c(Oc2cc3c(cc2OC)-c2c(OC)c(OC)cc4c2[C@H](C3)N(C)CC4)cc1OC | 16.6 | 39.8 µM and 30.8 µM | – | 33.7 | 16.5 | 21 µM and 30.7 µM | 13.3 | 20.4 µM and 26.7 µM | 9730 | 16.8 µM and 22.6 µM | 14.5 | 30 µM and 27.5 µM | 16.1 | 23.9 µM and 42.6 µM | – | 5.13 | 16.2 µM and 17 µM | – | 27.8 | 12.5
Cc1c(C(N)=O)sc2c1C(=O)N(Cc1ccccc1)C1=NN=C(c3ccc(Cl)cc3)CN12 | 3.42 | 15.6 µM | 3.84 | 20.9 | 2.31 | 14.7 µM | 4.07 | 16.6 µM | 2240 | 15.3 µM | 3.02 | 11.6 µM | 1.17 | 10.3 µM | 4.9 | 3.19 | 13.2 µM | 3.59 | 14.9 | 26.1
